Measured values taken from US20040249164A1, “Crystalline hydrates of nicotinic acid anilide and benzoyl anilide derivatives” (priority 2001, published 2004).

Key:
[1] = Physical properties of anhydrate and hydrate (Table 1); type: physicochemical
Procedure: 2-Chloro-N-(4′-chlorobiphenyl-2-yl)nicotinamide was obtained at the end of the synthesis as hot xylenic solution. Upon cooling slowly, virtually all of the active ingredient crystallized from xylene. After filtration, residual xylene was removed by drying in a vacuum drying oven, whereby the active ingredient was obtained in the form of the anhydrate. The physical properties are compiled in Table 1.
1 g of 2-chloro-N-(4′-chlorobiphenyl-2-yl)nicotinamide anhydrate was dissolved in 20 ml of THF at 40° C. and the solution was then poured into 20 ml of water. The material which had precipitated was filtered off with suction and dried at 40° C. in a drying oven.
The physical properties of the 2-chloro-N-(4′-chlorobiphenyl-2-yl)nicotinamide monohydrate thus repared are shown in Tabelle 1.

[2] = Particle size of the formulation on storage (Malvern Mastersizer); type: physicochemical; conditions: After eight milling passes, Dyno KDL mill
Procedure: 500 g of 2-chloro-N-(4′-chlorobiphenyl-2-yl)nicotinamide monohydrate were combined as described under A with adjuvants. After the mixture had been stirred briefly, it was pumped through a Dyno KDL mill (1.2 mm beads, milling space 1.2 l) at a rate of 2 l/h. The milling process was carried out without problems. No clogging of the mill or crystallization in the receiver was observed. After eight milling passes, a sufficiently fine particle size of 70% <2 μm (Malvern Mastersizer) was achieved, i.e. the particle diameter of 70% of the particles is <2 μm.
The data shown are the percentage of the particles which are smaller than 2 μm.

SMILES	Water content [1]	particle size, share of particles <2 μm [2]
O=C(Nc1ccccc1-c1ccc(Cl)cc1)c1cccnc1Cl [Anhydrate, 2-chloro-N-(4′-chlorobiphenyl-2-yl)nicotinamide]	<1%	
O.O=C(Nc1ccccc1-c1ccc(Cl)cc1)c1cccnc1Cl [Hydrate, 2-chloro-N-(4′-chlorobiphenyl-2-yl)nicotinamide monohydrate]	5%	70 % <2 μm
